Test results reported in article PMC6272448, “Synthesis, ^18F-Radiolabelling and Biological Characterization of Novel Fluoroalkylated Triazine Derivatives for in Vivo Imaging of Phosphodiesterase 2A in Brain via Positron Emission Tomography” (Molecules, 2015).

Biological target: T1, PDE2A (Mus musculus, UniProt Q922S4)
T1 construct: from tissue; host or cells: living female CD-1 mice (brain, in vivo)
T1 sequence (Q922S4 1-939): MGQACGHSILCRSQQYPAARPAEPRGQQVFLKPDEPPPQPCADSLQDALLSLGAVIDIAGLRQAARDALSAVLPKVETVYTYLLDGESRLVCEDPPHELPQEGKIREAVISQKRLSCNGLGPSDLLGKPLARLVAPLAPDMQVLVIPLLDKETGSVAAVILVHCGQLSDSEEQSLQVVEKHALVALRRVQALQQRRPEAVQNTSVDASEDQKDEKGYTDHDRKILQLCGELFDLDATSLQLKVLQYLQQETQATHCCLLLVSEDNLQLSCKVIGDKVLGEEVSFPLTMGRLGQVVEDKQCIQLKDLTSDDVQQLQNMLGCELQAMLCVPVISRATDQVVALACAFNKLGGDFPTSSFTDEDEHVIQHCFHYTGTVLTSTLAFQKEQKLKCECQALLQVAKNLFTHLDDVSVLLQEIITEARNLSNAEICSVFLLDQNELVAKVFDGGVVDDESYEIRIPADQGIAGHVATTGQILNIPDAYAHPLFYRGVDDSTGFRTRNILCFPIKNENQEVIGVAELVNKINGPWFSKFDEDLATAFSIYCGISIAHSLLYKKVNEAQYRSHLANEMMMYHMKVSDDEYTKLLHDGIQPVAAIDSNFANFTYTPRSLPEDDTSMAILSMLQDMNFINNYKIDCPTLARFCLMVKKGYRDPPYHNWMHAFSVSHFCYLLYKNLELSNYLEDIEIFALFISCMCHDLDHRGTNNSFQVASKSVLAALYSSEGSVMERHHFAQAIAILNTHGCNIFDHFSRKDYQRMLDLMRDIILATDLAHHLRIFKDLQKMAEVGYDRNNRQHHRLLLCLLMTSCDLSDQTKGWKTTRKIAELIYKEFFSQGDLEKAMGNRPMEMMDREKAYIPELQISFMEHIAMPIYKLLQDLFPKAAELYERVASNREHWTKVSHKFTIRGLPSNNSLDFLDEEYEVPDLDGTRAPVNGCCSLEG
Experiment: small-animal PET/MR baseline studies in mice
Assay type: in vivo
Conditions: CD-1 mice, i.v. 9.7 ± 1.3 MBq, 0-55 min p.i., n = 4
Description: For PET/MR baseline studies of [^18F]TA3 in anaesthetized CD-1 mice, the radioligand was injected intravenously (9.7 ± 1.3 MBq, SAEOS ~70 GBq/µmol, n = 4), and whole body scans were performed for 60 min in listmode with a Mediso nanoScan PET/MR scanner followed by dynamic reconstruction. Time-activity curves (TACs) were generated for regions of interest such as whole brain, striatum, and cerebellum (Figure 8).
Female CD-1 mice (n = 4; age: 8 weeks; weight: 28.8 ± 1.2 g; supplier: Medizinisch-Experimentelles Zentrum Leipzig, Leipzig, Germany) were housed under a 12 h:12 h light-dark cycle at 26 °C in a vented animal cabinet. The animals received an injection of 9.7 ± 1.3 MBq of [^18F]TA3 into the tail vein followed by a 60 min PET/MR scan (Mediso nanoScan®, Budapest, Hungary). Each PET image was corrected for random coincidences, dead time, scatter and attenuation (AC), based on a whole body (WB) MR scan.
The reconstruction parameters for the list mode data are: 3D-ordered subset expectation maximization (OSEM), 4 iterations, 6 subsets, energy window: 400–600 keV, coincidence mode: 1–5, ring difference: 81. […]
The respective brain regions were identified using the MR information from the GRE scan. The activity data is expressed as mean standardized uptake value (SUV) of the overall ROI.

COc1ccc2nnc3c(C)nc(-c4cc(OCCC[18F])ccc4F)n3c2n1 [[^18F]TA3]
time-activity curve in cerebellum: constantly increased uptake in the cerebellum | time-activity curve in striatum: fast wash out of activity from the striatum
